Experimental data published in ChEMBL document CHEMBL1155519, “Discovery of N-phenyl-4-(thiazol-5-yl)pyrimidin-2-amine aurora kinase inhibitors” (J Med Chem, 2010).
Active and inactive are the calls of the source. The rule behind the calls is not given here.

Legend:
U2OS [1] = test: Inhibition of Aurora kinase in asynchronous human U2OS cells assessed as reduction of histone H3 serine-10 phosphorylation at 150 nM after 7 hrs immunofluorescence microscopy; assay type: cell-based
[2] = target: Cyclin-dependent kinase 9 (Homo sapiens, UniProt P50750); test: Inhibition of CDK9
[3] = target: Cyclin-dependent kinase 2 (Homo sapiens, UniProt P24941)
MIA PaCa-2 = test: Cytotoxicity against human MIAPaCa2 cells after 96 hrs by MTT assay; assay type: functional, cell-based; details: MIA PaCa-2, 96 h
Aurora kinase A = target: T1, Aurora kinase A (Homo sapiens, UniProt O14965); test: Inhibition of human recombinant Aurora A after 30 mins
T1 sequence (O14965 whole entry): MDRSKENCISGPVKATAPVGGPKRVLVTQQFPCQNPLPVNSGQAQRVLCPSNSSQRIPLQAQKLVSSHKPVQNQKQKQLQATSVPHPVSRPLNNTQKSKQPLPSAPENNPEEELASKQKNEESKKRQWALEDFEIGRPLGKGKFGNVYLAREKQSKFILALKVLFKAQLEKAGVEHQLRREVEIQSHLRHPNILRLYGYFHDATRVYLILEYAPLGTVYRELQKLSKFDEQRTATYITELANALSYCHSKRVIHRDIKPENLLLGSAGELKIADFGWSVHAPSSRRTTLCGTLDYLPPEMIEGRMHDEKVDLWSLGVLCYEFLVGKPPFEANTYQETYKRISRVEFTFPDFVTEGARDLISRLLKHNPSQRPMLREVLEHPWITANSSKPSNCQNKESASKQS

Aurora kinase B = Aurora kinase B (Homo sapiens, UniProt Q96GD4); test: Inhibition of human recombinant Aurora B after 60 mins
MCF7 [4] = test: Induction of p53 protein expression in human MCF7 cells at 0.07 to 10 uM after 7 hrs by fluorescent microscopy; assay type: functional, cell-based
[5] = target: Cyclin-dependent kinase 7 (Homo sapiens, UniProt P50613); test: Inhibition of CDK7
[6] = target: Cyclin-dependent kinase 4 (Homo sapiens, UniProt P11802); test: Inhibition of CDK4
[7] = Inhibition of Aurora kinase in human A549 cells assessed as concentration required for half-maximal inhibition of histone H3 serine-10 phosphorylation after 7 hrs immunofluorescence microscopy; assay type: cell-based; details: A549, 7 h
[8] = target: Cyclin-dependent kinase 1 (Homo sapiens, UniProt P06493); test: Inhibition of CDK1
A2780 = test: Cytotoxicity against human A2780 cells after 96 hrs by MTT assay; assay type: functional, cell-based; details: A2780, 96 h
U2OS [9] = test: Inhibition of Aurora kinase in nocodazole-synchronized human U2OS cells assessed as reduction of histone H3 serine-10 phosphorylation at 0.07 to 10 uM after 2 hrs immunofluorescence microscopy; assay type: cell-based
MCF7 [10] = test: Induction of p53 protein expression in human MCF7 cells at 150 nM after 7 hrs by fluorescent microscopy; assay type: functional, cell-based

Cyclin-dependent kinase 9, sequence (P50750 whole entry): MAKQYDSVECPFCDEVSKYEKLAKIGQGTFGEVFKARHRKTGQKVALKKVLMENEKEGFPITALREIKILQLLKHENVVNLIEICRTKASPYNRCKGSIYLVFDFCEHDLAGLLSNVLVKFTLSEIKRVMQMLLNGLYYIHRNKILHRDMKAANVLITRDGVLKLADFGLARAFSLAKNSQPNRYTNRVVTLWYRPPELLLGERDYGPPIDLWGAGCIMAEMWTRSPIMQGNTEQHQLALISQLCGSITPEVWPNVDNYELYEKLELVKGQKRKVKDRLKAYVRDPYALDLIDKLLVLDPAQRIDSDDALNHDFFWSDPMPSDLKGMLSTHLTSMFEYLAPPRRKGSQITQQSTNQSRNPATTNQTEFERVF
Cyclin-dependent kinase 1, sequence (P06493 whole entry): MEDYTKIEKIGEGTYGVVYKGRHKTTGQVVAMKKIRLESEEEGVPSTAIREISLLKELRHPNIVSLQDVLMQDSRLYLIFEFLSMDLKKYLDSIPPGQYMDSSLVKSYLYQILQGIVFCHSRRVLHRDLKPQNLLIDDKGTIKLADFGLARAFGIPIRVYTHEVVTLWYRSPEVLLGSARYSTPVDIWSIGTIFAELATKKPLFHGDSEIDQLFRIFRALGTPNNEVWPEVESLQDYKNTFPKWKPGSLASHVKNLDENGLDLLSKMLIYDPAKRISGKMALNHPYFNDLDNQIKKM
Cyclin-dependent kinase 7, sequence (P50613 whole entry): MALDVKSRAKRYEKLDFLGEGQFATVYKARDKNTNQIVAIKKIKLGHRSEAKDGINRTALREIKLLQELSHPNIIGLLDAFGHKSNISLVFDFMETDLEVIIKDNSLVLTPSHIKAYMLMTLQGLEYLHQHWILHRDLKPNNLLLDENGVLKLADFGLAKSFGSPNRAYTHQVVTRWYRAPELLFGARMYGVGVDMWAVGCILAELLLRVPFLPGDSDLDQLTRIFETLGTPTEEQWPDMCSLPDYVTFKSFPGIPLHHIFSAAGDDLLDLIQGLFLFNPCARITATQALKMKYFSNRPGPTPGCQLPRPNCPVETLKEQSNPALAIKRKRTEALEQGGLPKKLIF
Cyclin-dependent kinase 4, sequence (P11802 whole entry): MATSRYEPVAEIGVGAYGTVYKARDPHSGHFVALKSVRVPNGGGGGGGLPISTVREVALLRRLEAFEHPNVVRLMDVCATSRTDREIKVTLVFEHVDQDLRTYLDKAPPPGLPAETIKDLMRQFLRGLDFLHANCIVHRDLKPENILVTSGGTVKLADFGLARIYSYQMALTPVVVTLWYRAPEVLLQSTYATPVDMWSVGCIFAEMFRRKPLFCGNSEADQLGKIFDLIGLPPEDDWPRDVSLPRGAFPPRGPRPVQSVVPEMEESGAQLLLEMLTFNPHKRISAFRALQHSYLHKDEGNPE
Aurora kinase B, sequence (Q96GD4 whole entry): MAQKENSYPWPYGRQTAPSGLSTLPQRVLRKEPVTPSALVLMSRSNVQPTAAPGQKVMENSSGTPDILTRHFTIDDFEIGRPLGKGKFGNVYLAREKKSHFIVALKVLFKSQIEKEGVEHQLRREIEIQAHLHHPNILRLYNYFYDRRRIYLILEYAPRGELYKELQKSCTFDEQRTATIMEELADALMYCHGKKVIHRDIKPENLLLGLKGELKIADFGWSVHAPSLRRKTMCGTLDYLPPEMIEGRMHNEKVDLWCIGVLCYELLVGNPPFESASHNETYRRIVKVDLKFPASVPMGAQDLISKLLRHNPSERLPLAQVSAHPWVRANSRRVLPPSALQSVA

Ki [2]	Ki [3]	Ki (Aurora kinase A)	Ki (Aurora kinase B)	Ki [5]	Ki [6]	IC50 [7]	Ki [8]	Structure (SMILES)	Activity (U2OS [1])	IC50 (MIA PaCa-2)	Activity (MCF7 [4])	IC50 (A2780)	inhibition (U2OS [9])	Activity (MCF7 [10])
6 nM	256 nM	1 nM	3 nM	370 nM	955 nM	280 nM	367 nM	CNc1nc(C)c(-c2ccnc(Nc3cc(OC)c(OC)c(OC)c3)n2)s1	inactive	62 nM	inactive	24 nM	Active	
448 nM	297 nM	12 nM	9.7 nM	1080 nM	22 nM		851 nM	CNc1nc(C)c(-c2ccnc(Nc3ccc(N4CCN(C(C)=O)CC4)cc3)n2)s1		622 nM		221 nM		
9 nM	32 nM	5 nM	4 nM	171 nM	38 nM	760 nM	240 nM	CCNc1nc(C)c(-c2ccnc(Nc3ccc(CNC(C)=O)cc3)n2)s1		230 nM		81 nM		
								Cc1nc(N)sc1-c1ccnc(Nc2cccc([N+](=O)[O-])c2)n1	Active	139 nM		48 nM	Active	Active
1150 nM	432 nM	8.2 nM	13 nM	2800 nM	929 nM	360 nM	1890 nM	CC(=O)N1CCN(c2ccc(Nc3nccc(-c4sc(C)nc4C)n3)cc2)CC1		604 nM		303 nM		
564 nM	463 nM	3 nM	6 nM	1390 nM	> 10000 nM	1880 nM	1220 nM	CCNc1nc(C)c(-c2ccnc(Nc3cc(OC)c(OC)c(OC)c3)n2)s1	inactive	994 nM	inactive	389 nM	Active	
11 nM	239 nM	0.4 nM	2 nM	243 nM	666 nM	130 nM	706 nM	COc1cc(Nc2nccc(-c3sc(C)nc3C)n2)cc(OC)c1OC	inactive	22 nM	inactive	10 nM	Active	

Structure (SMILES)	Ki [2]	Ki [3]	Ki (Aurora kinase A)	Ki (Aurora kinase B)	Ki [5]	Ki [6]	IC50 [7]	Ki [8]	Activity (U2OS [1])	IC50 (MIA PaCa-2)	Activity (MCF7 [4])	IC50 (A2780)	inhibition (U2OS [9])	Activity (MCF7 [10])
Cc1nc(C)c(-c2ccnc(Nc3ccc(N)cc3)n2)s1	337 nM	168 nM	31 nM		2560 nM	807 nM	940 nM	769 nM	Active	1230 nM	inactive	584 nM	Active	
